Measurements: patent publication US20160046592A1, “PHARMACEUTICAL COMPOSITION FOR THE TREATMENT OF DIABETES” (Ajinomoto Co., Inc., priority 2013, published 2016)
Counter-ions that a name gives are not always drawn.

Target: T1, human GYS1 (glycogen synthase) (Homo sapiens, UniProt P13807)
T1 construct: made in house; host or cells: HEK293T
T1 sequence (P13807 1-737): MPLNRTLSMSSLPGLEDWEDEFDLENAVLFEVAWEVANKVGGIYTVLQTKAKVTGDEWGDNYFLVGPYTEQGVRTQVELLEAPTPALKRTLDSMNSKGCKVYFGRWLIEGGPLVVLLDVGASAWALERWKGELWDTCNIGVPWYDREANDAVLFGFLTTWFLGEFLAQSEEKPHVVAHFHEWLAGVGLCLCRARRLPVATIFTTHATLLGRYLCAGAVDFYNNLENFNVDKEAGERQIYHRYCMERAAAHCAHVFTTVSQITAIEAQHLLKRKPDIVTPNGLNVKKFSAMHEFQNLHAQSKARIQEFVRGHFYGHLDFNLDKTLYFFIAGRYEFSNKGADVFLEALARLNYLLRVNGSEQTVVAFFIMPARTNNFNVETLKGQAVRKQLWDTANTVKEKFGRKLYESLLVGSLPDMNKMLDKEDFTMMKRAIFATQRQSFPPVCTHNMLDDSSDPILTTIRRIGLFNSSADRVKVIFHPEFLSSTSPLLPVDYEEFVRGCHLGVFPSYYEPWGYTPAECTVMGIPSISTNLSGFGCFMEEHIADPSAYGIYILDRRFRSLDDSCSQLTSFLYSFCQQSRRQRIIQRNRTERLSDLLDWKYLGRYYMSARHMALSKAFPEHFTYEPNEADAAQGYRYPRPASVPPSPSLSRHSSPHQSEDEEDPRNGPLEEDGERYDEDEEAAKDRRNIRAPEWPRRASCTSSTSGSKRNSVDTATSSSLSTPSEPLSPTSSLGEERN
Test: Measurement of glycogen synthase activity
Assay type: biochemical
Settings: concentration causing 50% increase in relative activity; 100% = compound of Example 1 of WO/2011/058154 at 10 μM; 10 mM Glucose-6-phosphate; 37° C. for 25 minutes (Examples 1 to 61 and 67 to 82) or 20 minutes (Examples 62 to 66); absorbance at 340 nm
How it was run: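 Human GYS1 from transfected HEK293T cells (re-dissolved 16000×g pellet) was reacted at 37 °C for 25 or 20 min in glycylglycine pH 7.3 with glucose-6-phosphate, glycogen and UDP-glucose. PK/LDH-coupled NADH read-out at 340 nm; EC50 from activity relative to a reference activator at 10 μM final (100%).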

Structure (SMILES) | EC50 [nM]
COC[C@@H]1CC[C@@H](C(=O)O)N1C(=O)c1cccc(COc2ccc(-c3cc(F)c(F)cc3SC)cc2)c1 [Example 62, (2S,5S)-1-[3-[[4-(4,5-Difluoro-2-methylsulfanyl-phenyl)phenoxy]methyl]benzoyl]-5-(methoxymethyl)pyrrolidine-2-carboxylic Acid] | 17
CSc1cc(F)c(F)cc1-c1ccc(OCc2cccc(C(=O)N3C[C@H](N(C)C)C[C@H]3C(=O)O)c2)cc1 [Example 63, (2S,4R)-1-[3-[[4-(4,5-Difluoro-2-methylsulfanyl-phenyl)phenoxy]methyl]benzoyl]-4-(dimethylamino)pyrrolidine-2-carboxylic Acid Trifluoroacetate] | 17
